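Briefly, cells in 96-well plates were exposed to five compound concentrations for 48 h, and endpoints were estimated by linear interpolation. GI50: concentration for 50% inhibition of growth. At the TGI there is no net growth.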
What was measured:
Test in all cases: inhibition of tumour cell growth, NCI panel, 48 h
IGROV1 ovarian = tested on: IGROV1 ovarian
SK-MEL-5 melanoma = tested on: SK-MEL-5 melanoma
CCRF-CEM leukemia = tested on: CCRF-CEM leukemia
CAKI-1 renal = tested on: CAKI-1 renal
NCI-H23 lung = tested on: NCI-H23 lung
UACC-62 melanoma = tested on: UACC-62 melanoma
OVCAR-3 ovarian = tested on: OVCAR-3 ovarian
A549 NSCLC = tested on: A549 NSCLC
NCI/ADR-RES ovarian = tested on: NCI/ADR-RES ovarian
UACC-257 melanoma = tested on: UACC-257 melanoma

## CC[C@H]1C=CCC[C@@]2(C[C@@H]3CC[C@@H]4[C@H](C(=O)OCCCCCCCCCCCCCCCC(=O)O)[C@]5(CCC[C@@H](C)O5)NC(=[N+]34)N2)O1
IGROV1 ovarian
  TGI: 8.93 µM
SK-MEL-5 melanoma
  TGI: 0.251 µM
CCRF-CEM leukemia
  TGI: 0.0215 µM
CAKI-1 renal
  TGI: 3.47 µM
NCI-H23 lung
  TGI: 4.83 µM
UACC-62 melanoma
  TGI: 0.179 µM
OVCAR-3 ovarian
  TGI: 5.83 µM
A549 NSCLC
  TGI: 5.87 µM
NCI/ADR-RES ovarian
  TGI: 14.8 µM

## COc1cccc(N=Cc2cc3cc(Br)ccc3nc2Cl)c1
IGROV1 ovarian
  TGI: > 50 µM
SK-MEL-5 melanoma
  TGI: > 50 µM
CCRF-CEM leukemia
  TGI: 48.8 µM
CAKI-1 renal
  TGI: > 50 µM
UACC-257 melanoma
  TGI: > 50 µM
NCI-H23 lung
  TGI: > 50 µM
OVCAR-3 ovarian
  TGI: > 50 µM
A549 NSCLC
  TGI: > 50 µM
NCI/ADR-RES ovarian
  TGI: > 50 µM

## CCCc1[nH]c(SCCCCCCCCSc2nc(-c3ccc(F)cc3)c(CCC)[nH]2)nc1-c1ccc(F)cc1
IGROV1 ovarian
  TGI: > 100 µM
SK-MEL-5 melanoma
  TGI: 67.1 µM
CCRF-CEM leukemia
  TGI: > 100 µM
UACC-257 melanoma
  TGI: > 100 µM
NCI-H23 lung
  TGI: 30.6 µM
UACC-62 melanoma
  TGI: > 100 µM
OVCAR-3 ovarian
  TGI: 12.9 µM
A549 NSCLC
  TGI: > 100 µM

## COc1cc(/C=C/C(=O)c2ccc(NS(=O)(=O)c3cc([N+](=O)[O-])ccc3C)cc2)cc(OC)c1OC
IGROV1 ovarian
  TGI: 17.1 µM
SK-MEL-5 melanoma
  TGI: 15.4 µM
CCRF-CEM leukemia
  TGI: 7.48 µM
CAKI-1 renal
  TGI: 17.3 µM
UACC-257 melanoma
  TGI: 21.9 µM
NCI-H23 lung
  TGI: 11 µM
OVCAR-3 ovarian
  TGI: 11.5 µM
A549 NSCLC
  TGI: 18.6 µM
NCI/ADR-RES ovarian
  TGI: > 100 µM

## CC(=O)Nc1cc([As](=O)(O)O)ccc1O
IGROV1 ovarian
  TGI: > 100 µM
SK-MEL-5 melanoma
  TGI: > 100 µM
CCRF-CEM leukemia
  TGI: > 100 µM
CAKI-1 renal
  TGI: > 100 µM
UACC-257 melanoma
  TGI: > 100 µM
NCI-H23 lung
  TGI: > 100 µM
UACC-62 melanoma
  TGI: > 100 µM
OVCAR-3 ovarian
  TGI: > 100 µM
A549 NSCLC
  TGI: > 100 µM
NCI/ADR-RES ovarian
  TGI: > 100 µM

## CNC(=O)OC(C)CN1c2ccccc2Sc2ccc(Cl)cc21 (centres undefined)
IGROV1 ovarian
  TGI: > 10 µM
SK-MEL-5 melanoma
  TGI: > 10 µM
CCRF-CEM leukemia
  TGI: > 10 µM
CAKI-1 renal
  TGI: > 10 µM
NCI-H23 lung
  TGI: > 10 µM
UACC-62 melanoma
  TGI: > 10 µM
OVCAR-3 ovarian
  TGI: > 10 µM
A549 NSCLC
  TGI: > 10 µM
NCI/ADR-RES ovarian
  TGI: > 10 µM

## CCOC(=O)CSc1nc(N)c2c(-c3ccc(OC)c(OC)c3)c3c(nc2n1)CCCC3
IGROV1 ovarian
  TGI: > 100 µM
SK-MEL-5 melanoma
  TGI: > 100 µM
CCRF-CEM leukemia
  TGI: > 100 µM
CAKI-1 renal
  TGI: > 100 µM
UACC-257 melanoma
  TGI: > 100 µM
NCI-H23 lung
  TGI: > 100 µM
UACC-62 melanoma
  TGI: > 100 µM
OVCAR-3 ovarian
  TGI: > 100 µM
A549 NSCLC
  TGI: > 100 µM
NCI/ADR-RES ovarian
  TGI: > 100 µM

## CCS(=O)(=O)Nc1ccc(Nc2c3ccccc3nc3ccccc23)c(OC)c1
IGROV1 ovarian
  TGI: 22.4 µM
SK-MEL-5 melanoma
  TGI: 12.9 µM
CAKI-1 renal
  TGI: 4.08 µM
UACC-257 melanoma
  TGI: 16.9 µM
NCI-H23 lung
  TGI: 3.79 µM
UACC-62 melanoma
  TGI: 4.02 µM
OVCAR-3 ovarian
  TGI: 6.05 µM
A549 NSCLC
  TGI: 1.7 µM
NCI/ADR-RES ovarian
  TGI: 20.6 µM

## COc1ccc2nc(N/N=C/C(C)=N/Nc3cc(C)c4cc(OC)ccc4n3)cc(C)c2c1
IGROV1 ovarian
  TGI: 47.1 µM
SK-MEL-5 melanoma
  TGI: 72.8 µM
CCRF-CEM leukemia
  TGI: 5.45 µM
CAKI-1 renal
  TGI: 76.1 µM
UACC-257 melanoma
  TGI: > 86.6 µM
NCI-H23 lung
  TGI: 48.9 µM
UACC-62 melanoma
  TGI: 64.6 µM
OVCAR-3 ovarian
  TGI: 53.6 µM
A549 NSCLC
  TGI: 45.7 µM
NCI/ADR-RES ovarian
  TGI: 46.1 µM

## CCOC(=O)N(Cc1cccs1)c1cc(OC)c(OC)c(OC)c1
IGROV1 ovarian
  TGI: > 100 µM
SK-MEL-5 melanoma
  TGI: > 100 µM
CCRF-CEM leukemia
  TGI: 69.3 µM
CAKI-1 renal
  TGI: > 100 µM
UACC-257 melanoma
  TGI: > 100 µM
NCI-H23 lung
  TGI: > 100 µM
UACC-62 melanoma
  TGI: > 100 µM
OVCAR-3 ovarian
  TGI: > 100 µM
A549 NSCLC
  TGI: > 100 µM
NCI/ADR-RES ovarian
  TGI: 29.2 µM

## COc1ccc2nc(-c3ccc(-c4noc(-c5cc(OC)c(OC)c(OC)c5)n4)cc3)[nH]c2c1
IGROV1 ovarian
  GI50: 26.3 µM
  TGI: 69.1 µM
SK-MEL-5 melanoma
  GI50: 3.25 µM
  TGI: 17.3 µM
CCRF-CEM leukemia
  GI50: 2200 nM
  TGI: > 100 µM
CAKI-1 renal
  GI50: 23.4 µM
  TGI: 54.9 µM
UACC-257 melanoma
  GI50: 17.1 µM
  TGI: 46.9 µM
NCI-H23 lung
  GI50: 4.1 µM
  TGI: 20 µM
UACC-62 melanoma
  GI50: 14 µM
  TGI: 33.4 µM
OVCAR-3 ovarian
  GI50: 4.25 µM
  TGI: 12.9 µM
A549 NSCLC
  GI50: 5.65 µM
  TGI: 20.3 µM
NCI/ADR-RES ovarian
  GI50: 3.32 µM
  TGI: 23.6 µM

## CC#CC#C/C=C1/O[C@]2(CCC(OC(C)=O)CO2)[C@@H]2O[C@H]12 (some centres undefined)
IGROV1 ovarian
  TGI: > 100 µM
CCRF-CEM leukemia
  TGI: 55.3 µM
CAKI-1 renal
  TGI: 63.6 µM
UACC-257 melanoma
  TGI: 74.9 µM
NCI-H23 lung
  TGI: 44.7 µM
UACC-62 melanoma
  TGI: 36.8 µM
OVCAR-3 ovarian
  TGI: > 100 µM
A549 NSCLC
  TGI: > 100 µM
NCI/ADR-RES ovarian
  TGI: 58.1 µM

## Cn1c(=S)[nH]c2sc3c(c2c1=O)CCSC3
IGROV1 ovarian
  TGI: > 100 µM
SK-MEL-5 melanoma
  TGI: > 100 µM
CAKI-1 renal
  TGI: > 100 µM
UACC-257 melanoma
  TGI: > 100 µM
NCI-H23 lung
  TGI: > 100 µM
UACC-62 melanoma
  TGI: > 100 µM
OVCAR-3 ovarian
  TGI: 61 µM
A549 NSCLC
  TGI: > 100 µM
NCI/ADR-RES ovarian
  TGI: > 100 µM

## COc1cc(C2C(C(=O)O)=C(CO)Oc3cc4c(cc32)OCO4)cc(OC)c1O (centres undefined)
IGROV1 ovarian
  TGI: > 100 µM
SK-MEL-5 melanoma
  TGI: > 100 µM
CCRF-CEM leukemia
  TGI: > 100 µM
CAKI-1 renal
  TGI: > 100 µM
UACC-257 melanoma
  TGI: > 100 µM
UACC-62 melanoma
  TGI: > 100 µM
OVCAR-3 ovarian
  TGI: > 100 µM
A549 NSCLC
  TGI: > 100 µM
